Measured values: the SangsterLogP compilation

Compound | logP
N[C@@H](Cc1ccc(O)c(O)c1)C(=O)OC1CCOC1 (stereo partly drawn) | -0.45
CC(C)OC(=O)[C@@H](N)Cc1ccc(O)cc1 | 0.99
COC(=O)[C@@H](N)Cc1ccc(O)cc1 | 0.18
CC(C)(C)OC(=O)N[C@@H](Cc1ccc(O)c(O)c1)C(=O)O | -1.86
CC(C)(C)OC(=O)[C@@H](N)Cc1ccc(O)c(O)c1 | 0.81
N[C@@H](Cc1ccccc1)C(=O)OCc1ccccc1 | 2.48
CCC(C)OC(=O)[C@@H](N)Cc1ccc(O)c(O)c1 (stereo partly drawn) | 0.93
CC(C)OC(=O)[C@@H](N)Cc1ccc(O)c(O)c1 | 0.52
N[C@@H](Cc1ccc(O)c(O)c1)C(=O)OCC1CCCO1 (stereo partly drawn) | 0.01
CCC(C)OC(=O)[C@@H](N)Cc1ccc(O)cc1 (stereo partly drawn) | 1.59
N[C@@H](Cc1ccc(O)cc1)C(=O)Oc1ccc([N+](=O)[O-])cc1 | 1.62
CCOC(=O)[C@@H](N)Cc1ccc(O)cc1 | 0.6
COC(=O)[C@@H](N)Cc1ccc(O)c(O)c1 | -0.28
